In the supplement of paper PMC10307832:

What was measured:
[1] = compound: CC(O)(CS(=O)(=O)c1ccc(F)cc1)C(=O)Nc1ccc(C#N)c(C(F)(F)F)c1 [Bicalutamide] + Cc1nc(Nc2ncc(C(=O)Nc3c(C)cccc3Cl)s2)cc(N2CCN(CCO)CC2)n1 [Dasatinib] (partner 0.075 µM); assay: relative viability (nuclei count vs DMSO), 5 days (fraction); higher = more cells survive
How it was run: (§1)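 Five library-drug doses in √10 steps were combined with a fixed anchor-drug dose, or a single drug was given alone, by pin tool to lung cancer cell lines in 1536-well plates the day after seeding. Nuclei were stained and counted after 5 days. Relative viability is the nuclei count in treated wells over that in vehicle wells, taken as the median of duplicate plates.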

[2] = compound: C(C(=O)C(=O)O)Br [Bromopyruvate] + CC(=O)Nc1cccc(-n2c(=O)n(C3CC3)c(=O)c3c(Nc4ccc(I)cc4F)n(C)c(=O)c(C)c32)c1 [Trametinib] (partner 0.02 µM); assay: as above
How it was run: as §1

Cell Line | relative viability ([1]; first compound 0.08 µM) | relative viability ([1]; first compound 0.253 µM) | relative viability ([1]; first compound 0.8 µM) | relative viability ([1]; first compound 2.53 µM) | relative viability ([2]; first compound 1 µM) | relative viability ([2]; first compound 3.162 µM) | relative viability ([2]; first compound 10 µM) | relative viability ([2]; first compound 31.62 µM) | relative viability ([2]; first compound 100 µM)
COR-L23 | 0.628 | 0.513 | 0.407 | 0.476 | 0.585 | 0.652 | 0.651 | 0.582 | 0.544
ABC-1 | 0.658 | 0.476 | 0.725 | 0.475 | – | – | – | – | –
SW 900 | 0.856 | 0.445 | 0.658 | 0.509 | 0.865 | 0.76 | 0.92 | 0.729 | 0.739
PC-14 | 0.263 | 0.223 | 0.264 | 0.18 | 0.8 | 0.717 | 0.953 | 0.718 | 0.753
NCI-H1648 | – | – | – | – | 0.349 | 0.413 | 0.472 | 0.545 | 0.482
A-427 | 0.643 | 0.631 | 0.791 | 0.607 | 0.73 | 0.766 | 0.838 | 0.767 | 0.771
NCI-H1792 | 0.84 | 0.509 | 1.06 | 0.856 | 0.392 | 0.448 | 0.382 | 0.364 | 0.435
LCLC-97TM1 | 0.954 | 0.853 | 0.813 | 0.817 | 0.193 | 0.188 | 0.2 | 0.165 | 0.277
LCLC-103H | 0.401 | 0.428 | 0.52 | 0.425 | 0.681 | 0.692 | 0.696 | 0.693 | 0.767
RERF-LC-KJ | 0.91 | 0.814 | 1.04 | 0.694 | 0.657 | 0.984 | 0.921 | 0.85 | 0.909
BEN | 0.355 | 0.316 | 0.393 | 0.38 | 1.03 | 0.983 | 1.18 | 0.97 | 1.2
NCI-H1666 | 0.915 | 0.789 | 0.767 | 0.731 | 0.865 | 0.858 | 0.825 | 0.852 | 0.911
LC-2-ad | 0.693 | 0.514 | 0.701 | 0.514 | 0.892 | 0.904 | 0.872 | 0.958 | 0.945
SW 1573 | 0.525 | – | 0.683 | 0.275 | 0.582 | 0.576 | 0.608 | 0.432 | 0.0469
ChaGo-K-1 | 0.613 | 0.557 | 0.561 | 0.542 | 0.887 | 0.911 | 0.963 | 0.855 | 0.903
COR-L 105 | 0.325 | 0.257 | 0.325 | 0.285 | 0.432 | 0.449 | 0.417 | 0.422 | 0.329
NCI-H1975 | 0.396 | 0.376 | 0.462 | 0.334 | 0.361 | 0.334 | 0.329 | 0.345 | 0.365
NCI-H2009 | 0.337 | 0.321 | 0.278 | 0.222 | 0.277 | 0.328 | 0.246 | 0.26 | 0.245
SK-LU-1 | 0.175 | 0.206 | 0.177 | 0.169 | 0.503 | 0.469 | 0.599 | 0.467 | 0.538
